# Results from US9185897B2, “Methods to deliver and maintain volatile compounds” (AUBURN UNIVERSITY, priority 2010, dated 2015).
# Assay: Release rate of a volatile compound from a model manually replenished system (mass loss of vials through a mass-regulating barrier)
# Format: physicochemical
# Settings: low-density polyethylene barrier, 0.004 inch-thick; air about 1.4 m/s; substantially constant over 133 days in the laboratory (FIG. 5)
# Description: Experimental release rates of a volatile compound from a model manually replenished system were measured as a function of time. Glass screw-thread sample vials with PTFE/silicone septa and open-top polypropylene caps contained the volatile liquid compound. Two different sizes of vials were employed: small 8 mL capacity (17 mm O.D. and 63 mm height) and large 40 mL capacity (28 mm O.D. and 98 mm height). The test volatile compound selected for study was dimethyldisulfide (DMDS). Duplicate samples of 5.5 mL and 30 mL of DMDS were added to the small and large vials, respectively. Then a mass-regulating barrier was placed on the top of each vial, and the open-top cap was tightly screwed to seal the vial contents. The diameters of the mass-regulating barriers for the small and large vials were 13.4 and 22.0 mm, respectively. In addition, the diameters of the openings in the caps for the small and large vials were 8.78 mm and 14.62 mm, respectively. Each vial with barrier, cap and liquid contents was then immediately weighed on an analytical balance. Next, the vials were placed in a dedicated laboratory fume hood. Ambient air with a bulk velocity of about 1.4 m/s (or 3 mph) passed over the vials. […] From these primary measurements the release rate for each […] was determined as a function of time. […]
structure (smiles),measurement,value
"CSSC [DMDS, dimethyldisulfide]",release rate,26 mg/day
